Bounds are passed on as bounds.

By IC50 is commonly meant the concentration needed to halve the response being measured.

The target in this experiment is Indoleamine 2,3-dioxygenase 1 (Homo sapiens, UniProt P14902). The experiment is described as follows: Inhibition of intracellular IDO1 activity in human HeLa cells assessed as L-kynurenine production by Ehrlichs test. It is filed as cell-based.
Chain of Indoleamine 2,3-dioxygenase 1 (P14902 whole entry): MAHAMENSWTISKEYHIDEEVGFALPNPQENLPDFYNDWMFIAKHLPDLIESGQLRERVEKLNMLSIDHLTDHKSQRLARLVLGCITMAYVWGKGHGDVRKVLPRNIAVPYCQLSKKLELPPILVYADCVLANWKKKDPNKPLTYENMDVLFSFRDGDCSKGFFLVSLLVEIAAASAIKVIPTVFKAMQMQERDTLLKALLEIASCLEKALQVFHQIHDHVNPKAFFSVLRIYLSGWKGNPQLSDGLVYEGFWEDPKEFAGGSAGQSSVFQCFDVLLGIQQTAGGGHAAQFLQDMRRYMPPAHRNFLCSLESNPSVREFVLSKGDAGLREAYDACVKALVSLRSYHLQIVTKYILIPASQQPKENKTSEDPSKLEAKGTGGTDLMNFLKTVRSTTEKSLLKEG
Turning to `CCc1cc(Cl)ccc1Nc1cnn[nH]1`, the IC50 was less than 100 nM.

For the compound `CCc1cc(Nc2cnn[nH]2)ccc1Cl`, the IC50 came out at 100 nM.

For `CS(=O)(=O)NCc1cc(Cl)ccc1Nc1cnn[nH]1`, the IC50 was 1000 nM.

With `O=C(O)C1CC(Cc2cc(Cl)ccc2Nc2cn[nH]n2)C1` (stereo unspecified), the IC50 stood at 1000 nM.

As for `Cc1cc(F)ccc1Nc1c[nH]nn1`, the IC50 is less than 100 nM.

For `N#Cc1cc(Nc2cn[nH]n2)ccc1Cl`, the IC50 is 100 nM.

The record behind these values is ChEMBL document CHEMBL3351859, “Indoleamine 2,3-dioxygenase inhibitors: potential treatment for cancer, sepsis, and more” (ACS Med Chem Lett, 2014).
